Experimental findings from article PMC5526551, “New hydrazonoindolin-2-ones: Synthesis, exploration of the possible anti-proliferative mechanism of action and encapsulation into PLGA microspheres” (PLoS ONE, 2017) are described below.

One data set deals with A549. The experiment in a line: Anti-proliferative activity, cell growth inhibition (CellTiterGlo, 72 h). Format: cell-based, human. The following applies: for inhibition at 30 µM: Homo sapiens, A549, read-out: Cell growth inhibitory activity, A-549. The method, then:
(§1) Twenty compounds, i.e. 4a-o and 7a-e, were analyzed for cancer cell growth inhibitory activity. These studies were carried out using cells derived from human lung, colon and breast tumors (A549, HT-29 and ZR-75 cells, respectively). This initial assessment of activity tested each compound in quadruplicate at a single concentration of 30 μM, if solubility permitted.
(§2) A549, HT-29, ZR-75 were obtained from the American Type Culture Collection (ATCC). Cells were harvested from 90-95% confluent 10 cm dishes, and diluted in growth media (RPMI-1640 supplemented with 5% fetal bovine serum). An appropriate concentration of cells were prepared to add 1,250 cells in a volume of 25 µL per well in tissue culture treated Griener 384-well microplates, then incubated overnight at 37°C. Compound 7e was diluted to a concentration of 30 µM in DMSO. Concentrated dosing solutions of twice the final concentration were prepared by dilution of the DMSO stocks 1:500 in growth media. Two-fold serial dilutions were then prepared in medium containing 0.2% DMSO to maintain a constant concentration of vehicle throughout the concentration range of the compound. Each of these was added in an equal volume (25 µL) to four wells on each cell assay plate, along with the vehicle control. The highest concentration for serial dilutions of the positive control (sunitinib) was prepared exactly as the experimental compound 7e. Cells were incubated with the compounds for a further 72 h.
(§3) At the end of the treatment period, assay plates were allowed to cool to RT for 10 min prior to the addition of 25 µL per well Promega CellTiterGlo reagent, followed by additional 10 min incubation at RT. The resulting luminescence was quantitated using a Molecular Devices Spectramax Paradigm.
(§4) Percent growth inhibition was calculated as follows, where 100 represents the viability of vehicle treated control samples:
(§5) The potency of compounds was determined using the non-linear dose response algorithm (four-parameter logistic fit) with GraphPad Prism 5 software.

In a further data set the test system is HT-29. Described as above. The data set is classed as cell-based, human. The following applies: for inhibition at 30 µM: Homo sapiens, HT-29, read-out: Cell growth inhibitory activity, HT-29. The method, then:
as §1, §2, §3, §4, §5

Another data set relates to ZR-75. Described as above. The data set is classed as cell-based, human. The following applies: for inhibition at 30 µM: Homo sapiens, ZR75, read-out: Cell growth inhibitory activity, ZR-75. The method, then: as §1, §2, §3, §4, §5
The test system of data set [1] is HT-29, ZR-75 and A-549 cell lines. The experiment in a line: Average anti-proliferative activity over the three cancer cell lines. The data set is classed as cell-based, human. To be noted: average of HT-29, ZR-75, A-549; for inhibition at 30 µM: Homo sapiens, read-out: Average Growth Inhibition %. The method, then: as §1
Therefore, they were subjected to quantitative inhibitory concentration 50% (IC50) determination for their cell growth inhibitory activity towards the A549, HT-29 and ZR-75 cancer cell lines.
as §2, §5

`COc1ccc(C=NN=C2C(=O)Nc3ccccc32)cc1` [Compound 4a, 3-((4-Methoxybenzylidene)hydrazono)indolin-2-one] gave a melting point of 277 to 279 °C. For the same molecule, the inhibition at 30 µM with A549 (30 μM, quadruplicate) is 27.1 ± 20.3%. Further, in the data set with HT-29 (30 μM, quadruplicate), the inhibition at 30 µM was found to be 19.5 ± 12.4%. For the same molecule, the inhibition at 30 µM in the data set on ZR-75 (30 μM, quadruplicate) stood at 34.8 ± 23.7%. In addition, the inhibition at 30 µM in data set [1] (30 μM) came out at 27.2%.
On the same counts, the results for `COc1ccc(C=NN=C2C(=O)Nc3ccccc32)cc1O` [Compound 4b, 3-((3-Hydroxy-4-methoxybenzylidene)hydrazono)indolin-2-one] are 273 to 275 °C, 66.3 ± 5.7%, 81.9 ± 3%, 59.3 ± 11.1% and 69.2%.
In the case of `COc1cc(C=NN=C2C(=O)Nc3ccccc32)ccc1O` [Compound 4c, 3-((4-Hydroxy-3-methoxybenzylidene)hydrazono)indolin-2-one], the inhibition at 30 µM in the data set with A549 (30 μM, quadruplicate) stood at 54.2 ± 5%; in the data set with HT-29 (30 μM, quadruplicate) it was 74.9 ± 5.3%; in the data set on ZR-75 (30 μM, quadruplicate), 55.4 ± 23.4%; in data set [1] (30 μM) it was 61.5%.
As to `COc1ccc(C=NN=C2C(=O)Nc3ccccc32)cc1OC` [Compound 4d, 3-((3,4-Dimethoxybenzylidene)hydrazono)indolin-2-one], the melting point lay within 276 to 278 °C. Further, in the data set with A549 (30 μM, quadruplicate), the inhibition at 30 µM was determined as 82.5 ± 6.9%. In the data set with HT-29 (30 μM, quadruplicate), the inhibition at 30 µM was determined as 81.7 ± 5.2%. The inhibition at 30 µM in the data set on ZR-75 (30 μM, quadruplicate) was determined as 58.8 ± 4.3%. The inhibition at 30 µM in data set [1] (30 μM) is 74.3%.
Taken in the same sequence, the figures for `COc1cc(C=NN=C2C(=O)Nc3ccccc32)cc(OC)c1OC` [Compound 4e, 3-((3,4,5-Trimethoxybenzylidene)hydrazono)indolin-2-one] were 240 to 241 °C, 93.6 ± 3.6%, 81.9 ± 5.4%, 86.1 ± 3.8% and 87.2%.
On the same counts, the results for `COc1ccc(C=NN=C2C(=O)Nc3ccc(Cl)cc32)cc1` [Compound 4f, 5-Chloro-3-((4-methoxybenzylidene)hydrazono)indolin-2-one] are 282 to 284 °C, 8.4 ± 10%, 6.1 ± 8.6%, 10.9 ± 14% and 8.4%.
Taken in the same sequence, the figures for `COc1ccc(C=NN=C2C(=O)Nc3ccc(Cl)cc32)cc1O` [Compound 4g, 5-Chloro-3-((3-hydroxy-4-methoxybenzylidene)hydrazono)indolin-2-one] were 278 to 280 °C, 44.2 ± 16.5%, 33.5 ± 11.3%, 46 ± 6.4% and 41.2%.
Take `COc1cc(C=NN=C2C(=O)Nc3ccc(Cl)cc32)ccc1O` [Compound 4h, 5-Chloro-3-((4-hydroxy-3-methoxybenzylidene)hydrazono)indolin-2-one]: the melting point lay within 269 to 271 °C. The inhibition at 30 µM in the data set with A549 (30 μM, quadruplicate) is 37.3 ± 8.1%. The inhibition at 30 µM in the data set with HT-29 (30 μM, quadruplicate) turned out to be 41.6 ± 10.4%. Moreover, the inhibition at 30 µM in the data set with ZR-75 (30 μM, quadruplicate) came out at 30.9 ± 9.5%. Also, the inhibition at 30 µM in data set [1] (30 μM) came to 36.6%.
On the same counts, the results for `COc1ccc(C=NN=C2C(=O)Nc3ccc(Cl)cc32)cc1OC` [Compound 4i, 5-Chloro-3-((3,4-dimethoxybenzylidene)hydrazono)indolin-2-one] are 282 to 284 °C, 4.9 ± 3.3%, -3.6 ± 9.7%, 33 ± 13% and 11.4%.
`CN1C(=O)C(=NN=C2C(=O)Nc3ccc(Cl)cc32)c2ccccc21` [Compound 7b, 5-Chloro-3-((methyl-2-oxoindolin-3-ylidene)hydrazono)indolin-2-one]: in the data set with A549 (30 μM, quadruplicate), the “Cell growth inhibitory activity, A-549” value came to 95.2 ± 2.8%. The IC50 in the data set on A549 (72 h, read-out: IC50 A-549) worked out at 5.19 µM; in the data set with HT-29 (72 h), 5.38 µM; with ZR-75 (72 h) it was 3.75 µM; in data set [1] it was 4.77 µM. Moreover, in the data set on HT-29 (30 μM, quadruplicate), the “Cell growth inhibitory activity, HT-29” value was 95.5 ± 3.4%. The “Cell growth inhibitory activity, ZR-75” value in the data set on ZR-75 (30 μM, quadruplicate) is on record as 95.5 ± 6.0%. For the same molecule, in data set [1] (30 μM), the “Average Growth Inhibition %” value turned out to be 95.4%.

For orientation: melting point means the temperature of the solid-liquid transition. As a reminder, the IC50 is the concentration at which inhibition is half-maximal.
